Laboratory results taken from patent US20240317706A1, “COMPOUNDS THAT MEDIATE PROTEIN DEGRADATION AND METHODS OF USE THEREOF” (Monte Rosa Therapeutics, Inc., priority 2021, published 2024).

How the values were obtained:
[1] = target: T1, CDK2 (Homo sapiens, UniProt P24941); experiment: NanoBiT assay (CDK2 degradation); format: cell-based; conditions: 24 hours; for Dmax: HEK293, HEK293 clonal line with CRISPR KI HiBiT tag on CDK2, Endurazine live cell substrate; for CDK2 NanoBiT Dmax (%): HEK293 clonal line with CRISPR KI HiBiT tag on CDK2, Endurazine live cell substrate
T1 construct: HEK293 clonal lines with CRISPR KI HiBiT tag on CDK2 proteins; host or cells: HEK293 clonal line, CRISPR knock-in HiBiT-CDK2, stably expressing LgBiT
How it was run: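 HEK293 cells with endogenous HiBiT-tagged CDK2 knock-in and stable LgBiT, with Endurazine live-cell substrate; cells were dosed with compound (30 μM stock) for 24 h at 37 °C, then luminescence was read. Response normalised to plate negative/positive controls and fitted to a 3-parameter logistic (hillslope=1) for EC50.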

[2] = target: CRBN-DDB1 (Homo sapiens, UniProt Q96SW2); experiment: Compound binding to CRBN by HTRF assay; conditions: CRBN-DDB1 2.5 nM, Cy5-Thalidomide 100 nM, 30 min; Ki from geometric mean IC50 by Cheng-Prustoff transformation
Method: Compound activity was monitored in a Homogenous Time-Resolved Fluorescence (HTRF) assay using 1-[5-({2-[2-(2-{[2-(2,6-dioxopiperidin-3-yl)-1,3-dioxo-2,3-dihydro-1H-isoindol-4-yl]oxy}acetamido)ethoxy]ethyl}carbamoyl)pentyl]-3,3-dimethyl-2-[(1E,3E)-5-[(2E)-1,3,3-trimethyl-5-sulfo-2,3-dihydro-1H-indol-2-ylidene]penta-1,3-dien-1-yl]-3H-indol-1-ium-5-sulfonate as a fluorescent probe. Biochemical assays were conducted in Greiner white 384 well HiBase plates (Cat. No 784075-25) in 10 μL total volume. A one pot detection solution of CRBN-DDB1 (2.5 nM), Anti-His Terbium Cryptate Gold (1×, PerkinElmer Cat. #: 61HI2TLB), and Cy5-Thalidomide (100 nM, Tenova Cat.: T52461) was prepared in 20 mM HEPES, 20 mM NaCl, 0.2 mM TCEP, 0.2 mM EDTA, and 0.005% Tween20 was dispensed to each assay plate. Compounds were stored in dry, ambient temperatures at 10 mM. A 10-point, 1:3 dilution series was prepared from 10 mM stock concentrations in Echo-compatible LDV plates. 10 nL of each compound dilution series was dispensed into assays wells using an Echo 650 (Labcyte inc. USA). 10 nL of 10 mM Lenalidomide was transferred into the active-control wells for the assay and 10 nL of DMSO was transferred into the neutral-control wells. The assay was then allowed to incubate for 30 min at ambient temperature after transferring compound. Plate measurements were taken on a Pherastar FSX (BMG Labtech, Germany) using the HTRF Red filter (Ex. 337 nm, em1: 620 nm, em2: 665 nm) (Flashes: 50, Integration time: 60-400 us, Z-height: 10 mm, Ratio-multiplier: 10,000). The HTRF signal was then subsequently normalized to the neutral and active controls. Analysis and IC50 values were derived using KNIME analytics (KNIME Zurich) transformation and fitting within Collaborative Drug Discovery (Collaborative Drug Discovery USA). Ki was derived from the geometric mean of the IC50 values using the Cheng-Prustoff transformation.

Chain of CRBN-DDB1 (Q96SW2 whole entry): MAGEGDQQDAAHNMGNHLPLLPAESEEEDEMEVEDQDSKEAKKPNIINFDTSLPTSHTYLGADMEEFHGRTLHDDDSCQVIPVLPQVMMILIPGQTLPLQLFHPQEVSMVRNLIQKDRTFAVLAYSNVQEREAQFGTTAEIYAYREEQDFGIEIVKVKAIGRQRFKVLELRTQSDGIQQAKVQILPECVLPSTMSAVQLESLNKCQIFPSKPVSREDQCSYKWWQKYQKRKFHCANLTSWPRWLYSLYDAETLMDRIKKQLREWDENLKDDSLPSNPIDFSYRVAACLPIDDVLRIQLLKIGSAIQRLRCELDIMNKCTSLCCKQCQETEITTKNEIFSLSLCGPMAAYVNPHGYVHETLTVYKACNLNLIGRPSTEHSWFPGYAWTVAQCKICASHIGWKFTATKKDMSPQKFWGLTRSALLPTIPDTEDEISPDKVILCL
Chain of CRBN-DDB1 (Q16531 whole entry partner): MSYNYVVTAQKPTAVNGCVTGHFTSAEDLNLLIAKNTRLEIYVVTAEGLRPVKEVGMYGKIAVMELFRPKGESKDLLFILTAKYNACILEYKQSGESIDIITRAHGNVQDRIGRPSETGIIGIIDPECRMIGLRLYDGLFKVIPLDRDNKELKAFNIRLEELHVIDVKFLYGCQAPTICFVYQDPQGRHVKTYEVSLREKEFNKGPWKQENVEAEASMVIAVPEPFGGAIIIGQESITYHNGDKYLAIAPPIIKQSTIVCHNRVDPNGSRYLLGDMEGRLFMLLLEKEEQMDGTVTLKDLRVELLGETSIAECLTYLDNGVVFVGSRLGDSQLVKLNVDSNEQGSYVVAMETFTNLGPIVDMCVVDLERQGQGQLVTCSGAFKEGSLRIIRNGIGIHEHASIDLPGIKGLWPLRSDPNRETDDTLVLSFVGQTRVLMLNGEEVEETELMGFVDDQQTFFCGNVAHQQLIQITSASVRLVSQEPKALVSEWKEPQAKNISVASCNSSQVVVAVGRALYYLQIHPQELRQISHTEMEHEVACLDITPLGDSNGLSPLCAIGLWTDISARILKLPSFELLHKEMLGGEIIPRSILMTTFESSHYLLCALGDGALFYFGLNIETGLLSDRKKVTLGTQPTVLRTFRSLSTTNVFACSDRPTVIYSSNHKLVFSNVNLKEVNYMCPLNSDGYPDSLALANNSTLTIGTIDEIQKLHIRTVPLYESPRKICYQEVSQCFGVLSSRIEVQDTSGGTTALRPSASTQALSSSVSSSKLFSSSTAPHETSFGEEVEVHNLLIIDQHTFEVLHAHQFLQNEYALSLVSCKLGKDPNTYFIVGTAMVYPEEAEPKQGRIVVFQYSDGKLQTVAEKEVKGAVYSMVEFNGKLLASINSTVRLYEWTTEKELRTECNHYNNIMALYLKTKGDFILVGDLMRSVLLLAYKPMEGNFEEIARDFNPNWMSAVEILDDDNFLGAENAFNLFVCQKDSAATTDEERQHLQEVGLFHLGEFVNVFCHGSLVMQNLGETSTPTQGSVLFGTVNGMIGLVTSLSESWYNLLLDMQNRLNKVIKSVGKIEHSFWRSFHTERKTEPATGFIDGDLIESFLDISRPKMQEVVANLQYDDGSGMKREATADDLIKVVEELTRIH

Row | Compound | Dmax [1] [%] | Ki [2] [nM] | CDK2 NanoBiT Dmax (%) [1]
1 | O=C1CCC(N2Cc3ccc(CNC(=O)OCCC4CC5(CCC5)C4)cc3C2=O)C(=O)N1 (centres unmarked) [Compound 124, 2-(spiro[3.3]heptan-2-yl)ethyl ((2-(2,6-dioxopiperidin-3-yl)-3-oxoisoindolin-5-yl)methyl)carbamate] | 10 to 50 | 100 to 1000 | –
2 | O=C1CCC(N2Cc3ccc(CNC(=O)OCC4CC5(C4)CC(F)(F)C5)cc3C2=O)C(=O)N1 (centres unmarked) [Compound 125, (6,6-difluorospiro[3.3]heptan-2-yl)methyl ((2-(2,6-dioxopiperidin-3-yl)-3-oxoisoindolin-5-yl)methyl)carbamate] | 10 to 50 | 100 to 1000 | –
3 | O=C1CCC(N2Cc3ccc(CNC(=O)OCC4CC5(CC5)C4)cc3C2=O)C(=O)N1 (centres unmarked) [Compound 126, spiro[2.3]hexan-5-ylmethyl ((2-(2,6-dioxopiperidin-3-yl)-3-oxoisoindolin-5-yl)methyl)carbamate] | 10 to 50 | 100 to 1000 | –
4 | O=C1CCC(N2Cc3ccc(CNC(=O)OCC4CC5(C4)CC4(CCC4)C5)cc3C2=O)C(=O)N1 (centres unmarked) [Compound 127, dispiro[3.1.36.14]decan-2-ylmethyl((2-(2,6-dioxopiperidin-3-yl)-3-oxoisoindolin-5-yl)methyl)carbamate] | 50 to 80 | ≤ 100 | –
5 | O=C1CCC(N2Cc3ccc(CNC(=O)OCCCC4CCC4)cc3C2=O)C(=O)N1 (centres unmarked) [Compound 128, 3-cyclobutylpropyl ((2-(2,6-dioxopiperidin-3-yl)-3-oxoisoindolin-5-yl)methyl)carbamate] | 10 to 50 | 100 to 1000 | –
6 | CC1(C)[C@H]2CC=C(CCOC(=O)NCc3ccc4c(c3)C(=O)N(C3CCC(=O)NC3=O)C4)[C@@H]1C2 (stereo partly drawn) [Compound 129, 2-((1R,5S)-6,6-dimethylbicyclo[3.1.1]hept-2-en-2-yl)ethyl ((2-(2,6-dioxopiperidin-3-yl)-3-oxoisoindolin-5-yl)methyl)carbamate] | 10 to 50 | 100 to 1000 | –
7 | O=C1CCC(N2Cc3ccc(CNC(=O)OC4CCC5(CC4)CC5)cc3C2=O)C(=O)N1 (centres unmarked) [Compound 130, spiro[2.5]octan-6-yl ((2-(2,6-dioxopiperidin-3-yl)-3-oxoisoindolin-5-yl)methyl)carbamate] | 10 to 50 | 100 to 1000 | –
8 | CC(C)(C)C12CC(COC(=O)NCc3ccc4c(c3)C(=O)N(C3CCC(=O)NC3=O)C4)(C1)C2 (centres unmarked) [Compound 131, (3-(tert-butyl)bicyclo[1.1.1]pentan-1-yl)methyl((2-(2,6-dioxopiperidin-3-yl)-3-oxoisoindolin-5-yl)methyl)carbamate] | 10 to 50 | 100 to 1000 | –
9 | O=C1CCC(N2Cc3ccc(CNC(=O)OC[C@@H]4C[C@H]4c4ccccc4)cc3C2=O)C(=O)N1 (stereo partly drawn) [Compound 132, ((1R,2R)-2-phenylcyclopropyl)methyl ((2-(2,6-dioxopiperidin-3-yl)-3-oxoisoindolin-5-yl)methyl)carbamate] | 10 to 50 | 100 to 1000 | –
10 | O=C1CCC(N2Cc3ccc(CNC(=O)OC4CCC5(CCC5)CC4)cc3C2=O)C(=O)N1 (centres unmarked) [Compound 133, spiro[3.5]nonan-7-yl ((2-(2,6-dioxopiperidin-3-yl)-3-oxoisoindolin-5-yl)methyl)carbamate] | 10 to 50 | 100 to 1000 | –

Now from value to compound, other results behind:

Row | Dmax [1] [%] | Ki [2] [nM] | Compound | CDK2 NanoBiT Dmax (%) [1]
11 | 10 to 50 | ≤ 100 | CC1(CCCCOC(=O)NCc2ccc3c(c2)C(=O)N(C2CCC(=O)NC2=O)C3)CC1 (centres unmarked) [Compound 134, 4-(1-methylcyclopropyl)butyl ((2-(2,6-dioxopiperidin-3-yl)-3-oxoisoindolin-5-yl)methyl)carbamate] | –
12 | 50 to 80 | 100 to 1000 | O=C1CCC(N2Cc3ccc(CNc4nnc(C5CC6(CCC6)C5)o4)c(O)c3C2=O)C(=O)N1 (centres unmarked) [Compound 135, 3-(7-hydroxy-1-oxo-6-(((5-(spiro[3.3]heptan-2-yl)-1,3,4-oxadiazol-2-yl)amino)methyl)isoindolin-2-yl)piperidine-2,6-dione] | –
13 | 50 to 80 | 100 to 1000 | O=C1CCC(N2Cc3ccc(CNc4nnc(C5CC6(CCC6)C5)o4)cc3C2=O)C(=O)N1 (centres unmarked) [Compound 136, 3-(1-oxo-6-(((5-(spiro[3.3]heptan-2-yl)-1,3,4-oxadiazol-2-yl)amino)methyl)isoindolin-2-yl)piperidine-2,6-dione] | –
14 | 50 to 80 | ≤ 100 | O=C1CCC(N2Cc3c(Br)cc(CNc4nnc(C5CC6(CCC6)C5)o4)c(O)c3C2=O)C(=O)N1 (centres unmarked) [Compound 137, 3-(4-bromo-7-hydroxy-1-oxo-6-(((5-(spiro[3.3]heptan-2-yl)-1,3,4-oxadiazol-2-yl)amino)methyl)isoindolin-2-yl)piperidine-2,6-dione] | –
15 | 50 to 80 | ≤ 100 | O=C1CCC(N2Cc3c(Br)cc(CNc4nnc(C5CC6(CCC6)C5)o4)cc3C2=O)C(=O)N1 (centres unmarked) [Compound 138, 3-(4-bromo-1-oxo-6-(((5-(spiro[3.3]heptan-2-yl)-1,3,4-oxadiazol-2-yl)amino)methyl)isoindolin-2-yl)piperidine-2,6-dione] | –
16 | – | 100 to 1000 | O=C1CCC(N2Cc3c(cc(CNc4nnc(C5CC6(CCC6)C5)o4)cc3C(F)(F)F)C2=O)C(=O)N1 (centres unmarked) [Compound 139, 3-(1-oxo-6-(((5-(spiro[3.3]heptan-2-yl)-1,3,4-oxadiazol-2-yl)amino)methyl)-4-(trifluoromethyl)isoindolin-2-yl)piperidine-2,6-dione] | C (C represents a Dmax value of >50% and ≤80%)
17 | 50 to 80 | 100 to 1000 | O=C1CCC(N2Cc3c(Cl)cc(CNc4nnc(C5CC6(CCC6)C5)o4)cc3C2=O)C(=O)N1 (centres unmarked) [Compound 140, 3-(4-chloro-1-oxo-6-(((5-(spiro[3.3]heptan-2-yl)-1,3,4-oxadiazol-2-yl)amino)methyl)isoindolin-2-yl)piperidine-2,6-dione] | –
18 | 10 to 50 | 100 to 1000 | O=C1CCC(N2Cc3ccc(CNc4nnc(C5CCCCC5)o4)cc3C2=O)C(=O)N1 (centres unmarked) [Compound 141, 3-(6-(((5-cyclohexyl-1,3,4-oxadiazol-2-yl)amino)methyl)-1-oxoisoindolin-2-yl)piperidine-2,6-dione] | –
19 | 50 to 80 | 100 to 1000 | O=C1CCC(N2Cc3c(F)cc(CNc4nnc(C5CC6(CCC6)C5)o4)cc3C2=O)C(=O)N1 (centres unmarked) [Compound 142, 3-(4-fluoro-1-oxo-6-(((5-(spiro[3.3]heptan-2-yl)-1,3,4-oxadiazol-2-yl)amino)methyl)isoindolin-2-yl)piperidine-2,6-dione] | –
20 | 10 to 50 | ≤ 100 | O=C1CCC(N2Cc3c(cc(CNc4nnc(C5CC6(CCC6)C5)o4)cc3C(F)F)C2=O)C(=O)N1 (centres unmarked) [Compound 143, 3-(4-(difluoromethyl)-1-oxo-6-(((5-(spiro[3.3]heptan-2-yl)-1,3,4-oxadiazol-2-yl)amino)methyl)isoindolin-2-yl)piperidine-2,6-dione] | –
21 | 10 to 50 | 100 to 1000 | Nc1c(CNc2nnc(C3CC4(CCC4)C3)o2)ccc2c1C(=O)N(C1CCC(=O)NC1=O)C2 (centres unmarked) [Compound 144, 3-(7-amino-1-oxo-6-(((5-(spiro[3.3]heptan-2-yl)-1,3,4-oxadiazol-2-yl)amino)methyl)isoindolin-2-yl)piperidine-2,6-dione] | –
22 | – | 100 to 1000 | O=C1CCC(N2Cc3c(cc(CNc4nnc(C5CC6(CCC6)C5)o4)cc3C(F)(F)F)C2=O)C(=O)N1 (centres unmarked) [Compound 145, 3-(1-oxo-6-(((5-(spiro[3.3]heptan-2-yl)-1,3,4-oxadiazol-2-yl)amino)methyl)-4-(trifluoromethyl)isoindolin-2-yl)piperidine-2,6-dione] | B (B represents a Dmax value of >10% and ≤50%)
